Assay results from BindingDB's records for patent US11814384 (Kinnate Biopharma, 2023).
Entries after “also recorded” stand apart in the source; their conditions may differ.

The compounds below were run against Serine/threonine-protein kinase B-raf (Homo sapiens, UniProt P15056) (assay: Enzymatic BRAF Kinase Activity Assay).
Procedure: Small molecule inhibition of the BRAF kinases was measured using ADP-Glo assay. In the assay, […], resulting in luciferase reaction and luminescent readout with light generated proportional to the relative kinase activity. Compounds diluted in DMSO were used in 10-point, 3-fold dose curve for both assays. Final concentrations of 6 nM BRAF (CarnaBio, Cat. 09-122) or 3 nM RAF1 (CarnaBio, Cat. 09-125) and 30 nM MEK1 substrate (Millipore, Cat. 14-420) were incubated with 3 µM ATP, 10 mM MgCl2, 0.003% Brij-35, 2 mM DTT, 0.05% BSA, 1 mM EGTA, and 50 mM HEPES for 90 minutes at room temp prior to addition of ADP-Glo reagent (Promega, Cat. V9102) for 40 minutes, and detection reagent for 45 minutes. Luminescence was read on an Envision plate reader (PerkinElmer) and percent remaining activity was used to calculate IC50 using a four-parameter fit model using Dotmatics Knowledge Solutions Studies curve fitting (Dotmatics, Bishops Stortford, UK, CM23).

Serine/threonine-protein kinase B-raf, sequence (P15056 whole entry): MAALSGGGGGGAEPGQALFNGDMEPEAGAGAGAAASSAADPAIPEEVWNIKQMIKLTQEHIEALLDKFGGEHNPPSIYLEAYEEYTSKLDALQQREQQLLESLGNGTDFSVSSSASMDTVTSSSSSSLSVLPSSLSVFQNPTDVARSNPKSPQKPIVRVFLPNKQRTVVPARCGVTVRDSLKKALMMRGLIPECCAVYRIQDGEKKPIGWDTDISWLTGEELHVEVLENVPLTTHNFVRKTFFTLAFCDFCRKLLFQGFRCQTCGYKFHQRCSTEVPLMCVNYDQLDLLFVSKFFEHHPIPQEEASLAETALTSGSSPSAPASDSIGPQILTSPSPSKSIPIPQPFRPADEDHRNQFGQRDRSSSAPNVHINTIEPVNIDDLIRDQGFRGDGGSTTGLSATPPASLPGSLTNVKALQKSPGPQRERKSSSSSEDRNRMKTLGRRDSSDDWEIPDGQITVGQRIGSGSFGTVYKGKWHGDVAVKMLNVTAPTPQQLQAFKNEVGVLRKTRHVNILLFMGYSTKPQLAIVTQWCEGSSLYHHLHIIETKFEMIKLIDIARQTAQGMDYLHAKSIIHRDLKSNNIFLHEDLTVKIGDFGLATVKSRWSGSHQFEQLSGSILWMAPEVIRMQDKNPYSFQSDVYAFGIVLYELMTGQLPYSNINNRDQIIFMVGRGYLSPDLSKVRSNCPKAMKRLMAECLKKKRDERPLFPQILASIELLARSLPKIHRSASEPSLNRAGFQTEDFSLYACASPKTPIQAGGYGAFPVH

How did the IC50 turn out when `Cc1cc(F)c(NC(=O)N2CC[C@@H](CC(F)(F)F)C2)cc1-c1cc(N2CCOCC2)c2nn(C)cc2c1` [US11814384, Example 1] was run?
The IC50 was “in the range around 5.5 nM”.

`Cc1cc(F)c(NC(=O)N2CC[C@@H](CC(F)(F)F)C2)cc1-c1cc(N2CCOCC2)c2nn(C)c(C)c2c1` [US11814384, Example 16] was tested. Which IC50 did it give?
The IC50 was “in the range around 5.5 nM”.

How did the IC50 turn out when `Cc1cc(F)c(NC(=O)N2CC[C@@H](CC(F)(F)F)C2)cc1-c1cc(N2CCOCC2)c2nccn2c1` [US11814384, Example 17] was run?
Its IC50 is “in the range around 5.5 nM”.

Which IC50 does the source give for `Cc1cc(F)c(NC(=O)N2CC=C(C(F)(F)C(F)(F)F)C2)cc1-c1cc(N2CCOCC2)c2nccn2c1` [US11814384, Example 22] here?
Its IC50 is 1 to 10 nM.

For `Cc1cc(F)c(NC(=O)N2CCC(C(F)(F)C(F)(F)F)C2)cc1-c1cc(N2CCOCC2)c2nccn2c1` (stereo unspecified) [US11814384, Example 23], which IC50 is on record?
The IC50 was 1 to 10 nM.

For `Cc1ccc(NC(=O)c2ccnc(C(F)(F)F)c2)cc1-c1cc(N2CCOCC2)c2nc3c(n2c1)COCC3` [US11814384, Example 33], which IC50 is on record?
The IC50 was “in the range around 5.5 nM”.

How did the IC50 turn out when `Cc1ccc(NC(=O)c2ccnc(C(F)(F)F)c2)cc1-c1cc(N2CCOCC2)c2nc3c(n2c1)CC(O)CC3` (stereo unspecified) [US11814384, Example 34] was run?
The IC50 was 1 to 10 nM.

Which IC50 does the source give for `Cc1ccc(NC(=O)c2ccnc(C(F)(F)F)c2)cc1-c1cc(N2CCOCC2)c2nc3c(n2c1)CCOC3` [US11814384, Example 36] here?
Its IC50 is “in the range around 5.5 nM”.

Which IC50 does the source give for `Cc1ccc(NC(=O)N2CC[C@@H](CC(F)(F)F)C2)cc1-c1cc(N2CC3CCC(C2)O3)c2nccn2c1` [US11814384, Example 38] here?
The IC50 was “in the range around 5.5 nM”.

`Cc1cc(F)c(NC(=O)c2ccn(C(C)(C)C)c2)cc1-c1cc(N2CCOCC2)c2nccn2c1` [US11814384, Example 43] was tested. Which IC50 did it give?
The IC50 was “in the range around 5.5 nM”.

Which IC50 does the source give for `Cc1cc(F)c(NC(=O)[C@@H]2CCN(CC(F)(F)F)C2)cc1-c1cc(N2CCOCC2)c2nccn2c1` [US11814384, Example 46] here?
Its IC50 is “in the range around 5.5 nM”.

For `Cc1cc(F)c(NC(=O)N2CCOC(C(C)(C)C)C2)cc1-c1cc(N2CCOCC2)c2nccn2c1` (stereo unspecified) [US11814384, Example 50], which IC50 is on record?
The IC50 was “in the range around 5.5 nM”.

`Cc1cc(F)c(NC(=O)N2CCC(C3(C(F)(F)F)CC3)C2)cc1-c1cc(N2CCOCC2)c2nccn2c1` (stereo unspecified) [US11814384, Example 60] was tested. Which IC50 did it give?
Its IC50 is “in the range around 5.5 nM; also recorded: in the range around 55 nM”.

`Cc1cc(F)c(NC(=O)c2cn(C(C)(C)C)cc2F)cc1-c1cc(N2CCOCC2)c2nccn2c1` [US11814384, Example 66] was tested. Which IC50 did it give?
Its IC50 is “in the range around 5.5 nM”.

With `Cc1cc(F)c(NC(=O)c2cn(C(C)(C)C)cn2)cc1-c1cc(N2CCOCC2)c2nccn2c1` [US11814384, Example 67] as the compound, how does the IC50 read?
The IC50 was “in the range around 5.5 nM”.

Which IC50 does the source give for `Cc1cc(F)c(NC(=O)N2CC=C(C3(C)CC3)C2)cc1-c1cc(N2CCOCC2)c2nccn2c1` [US11814384, Example 69] here?
The IC50 was “in the range around 5.5 nM”.

Which IC50 does the source give for `Cc1cc(F)c(NC(=O)c2cncc(C(F)(F)F)c2)cc1-c1cc(N2CCOCC2)c2nccn2c1` [US11814384, Example 70] here?
Its IC50 is “in the range around 5.5 nM”.

With `Cc1ccc(NC(=O)c2cnn(C(C)(C)C)c2F)cc1-c1cc(N2CCOCC2)c2nccn2c1` [US11814384, Example 73] as the compound, how does the IC50 read?
The IC50 was “in the range around 5.5 nM”.

For `Cc1cc(F)c(NC(=O)N2CCC(C(C)(C)C(F)(F)F)C2)cc1-c1cc(N2CCOCC2)c2nccn2c1` (stereo unspecified) [US11814384, Example 74], which IC50 is on record?
Its IC50 is “in the range around 5.5 nM”.

For `CCc1nc2cc(-c3cc(C(=O)Nc4cn(C(C)(C)C)nc4F)c(F)cc3C)cc(N3CCOCC3)n2n1` [US11814384, Example 76], which IC50 is on record?
Its IC50 is “in the range around 5.5 nM”.

How did the IC50 turn out when `Cc1cc(F)c(NC(=O)c2cncc(C(C)(F)F)c2)cc1-c1cc(N2CCOCC2)c2nccn2c1` [US11814384, Example 84] was run?
The IC50 was “in the range around 5.5 nM”.

For `Cc1cc(F)c(NC(=O)c2cn(C(C)(C)C)nn2)cc1-c1cc(N2CCOCC2)c2nccn2c1` [US11814384, Example 86], which IC50 is on record?
The IC50 was “in the range around 5.5 nM”.

With `Cc1cc(F)c(NC(=O)N2CCC(C(C)C(F)F)C2)cc1-c1cc(N2CCOCC2)c2nccn2c1` (stereo unspecified) [US11814384, Example 87] as the compound, how does the IC50 read?
Its IC50 is “in the range around 5.5 nM; also recorded: in the range around 55 nM”.

With `Cc1ccc(NC(=O)c2cc(C(C)(C)C)ncc2F)cc1-c1cc(N2CCOCC2)c2nccn2c1` [US11814384, Example 95] as the compound, how does the IC50 read?
Its IC50 is “in the range around 55 nM”.

How did the IC50 turn out when `CC(C)(C)n1ncc(C(=O)Nc2cc(-c3cc(N4CCOCC4)c4nccn4c3)c(Cl)cc2F)c1F` [US11814384, Example 98] was run?
Its IC50 is “in the range around 5.5 nM”.

`O=C(Nc1cc(-c2cc(N3CCOCC3)c3nccn3c2)c(F)cc1F)N1CC[C@@H](CC(F)(F)F)C1` [US11814384, Example 99] was tested. Which IC50 did it give?
Its IC50 is “in the range around 55 nM”.

For `Cc1cc(F)c(NC(=O)c2cnn(C(C)(C)C)c2F)cc1-c1cc(N2CCOCC2)c2nccn2c1` [US11814384, Example 103], which IC50 is on record?
The IC50 was “in the range around 5.5 nM”.

`CC(C)(C)n1ncc(C(=O)Nc2ccc(Cl)c(-c3cc(N4CCOCC4)c4nccn4c3)c2)c1F` [US11814384, Example 110] was tested. Which IC50 did it give?
Its IC50 is “in the range around 5.5 nM”.

For `Cc1cc(F)c(NC(=O)c2cnn(C(C)(C)C)c2F)cc1-c1cc(N2CCOCC2)c2ncc(F)n2c1` [US11814384, Example 111], which IC50 is on record?
Its IC50 is “in the range around 55 nM”.

For `Cc1cc(F)c(N)cc1-c1cc(N2CCOCC2)c2nccn2c1` [US11814384, Example 112], which IC50 is on record?
Its IC50 is “in the range around 55 nM”.

For `Cc1cc(F)c(NC(=O)c2ccnc(C(C)C(F)F)c2)cc1-c1cc(N2CCOCC2)c2nccn2c1` (stereo unspecified) [US11814384, Example 113], which IC50 is on record?
Its IC50 is “in the range around 5.5 nM”.

`Cc1cc(F)c(NC(=O)c2cn(C(C)(C)C)c(F)n2)cc1-c1cc(N2CCOCC2)c2nccn2c1` [US11814384, Example 118] was tested. Which IC50 did it give?
Its IC50 is “in the range around 5.5 nM”.

For `Cc1cc(F)c(NC(=O)N2CC(F)C(C(C)C)C2)cc1-c1cc(N2CCOCC2)c2nccn2c1` (stereo unspecified) [US11814384, Example 119], which IC50 is on record?
Its IC50 is “in the range around 5.5 nM”.

With `Cc1cc(F)c(NC(=O)c2cnn(C(C)(C)C(F)F)c2)cc1-c1cc(N2CCOCC2)c2nccn2c1` [US11814384, Example 124] as the compound, how does the IC50 read?
Its IC50 is “in the range around 5.5 nM”.

How did the IC50 turn out when `Cc1cc(F)c(NC(=O)c2cnn(C(F)C(C)(C)F)c2)cc1-c1cc(N2CCOCC2)c2nccn2c1` (stereo unspecified) [US11814384, Example 125] was run?
The IC50 was “in the range around 5.5 nM”.

For `Cc1cc(F)c(NC(=O)c2cnn(C(C)(C)C(F)(F)F)c2)cc1-c1cc(N2CCOCC2)c2nccn2c1` [US11814384, Example 136], which IC50 is on record?
The IC50 was “in the range around 5.5 nM”.

With `Cc1ncc(NC(=O)c2cnn(C(C)(C)C)c2F)cc1-c1cc(N2CCOCC2)c2nccn2c1` [US11814384, Example 137] as the compound, how does the IC50 read?
Its IC50 is “in the range around 5.5 nM”.

For `Cc1cnc(NC(=O)c2cnn(C(C)(C)C)c2F)cc1-c1cc(N2CCOCC2)c2nccn2c1` [US11814384, Example 138], which IC50 is on record?
Its IC50 is “in the range around 5.5 nM”.

With `Cc1cn2cc(-c3cc(NC(=O)c4cn(C(C)(C)C)cn4)c(F)cc3C)cc(N3CCOCC3)c2n1` [US11814384, Example 140] as the compound, how does the IC50 read?
The IC50 was “in the range around 5.5 nM”.

For `Cc1cc(F)c(NC(=O)c2nn(C(C)(C)C)cc2F)cc1-c1cc(N2CCOCC2)c2nccn2c1` [US11814384, Example 141], which IC50 is on record?
The IC50 was “in the range around 5.5 nM”.

How did the IC50 turn out when `Cc1ccc(NC(=O)c2nn(C(C)(C)C)cc2F)cc1-c1cc(N2CCOCC2)c2nccn2c1` [US11814384, Example 142] was run?
Its IC50 is “in the range around 5.5 nM”.
